How the values were obtained:
Assay in all cases: Minimum inhibitory concentration, microtitre plate doubling dilutions
Type in all cases: cell-based
Staphylococcus aureus = details: for MIC versus organism S.a: biocide alone, visual growth after 24 hours at 37° C.
Description: (§1) Bacteria were grown to stationary phase (18 h) in nutrient broth (approximately 10^9 organisms per ml). A 0.1% (v/v) inoculum was used to seed fresh medium and 100 μl of this was added to each well of a microtitre plate, except for the first well which contained 200 μl. Using doubling dilutions, the concentration of each antimicrobial was varied in each well along the ordinate axis. The presence or absence of growth was determined by visual inspection after 24 hours incubation at 37° C.

Pseudomonas aeruginosa = details: for MIC versus organism Ps.a: biocide alone, visual growth after 24 hours at 37° C.
Description: as §1

Escherichia coli = details: for MIC versus organism E.c: biocide alone, visual growth after 24 hours at 37° C.
Description: as §1

Row | Compound | MIC (Staphylococcus aureus; Staphylococcus aureus, 24 h, read-out: MIC versus organism S.a) [µg/mL] | MIC (Pseudomonas aeruginosa; Pseudomonas aeruginosa, 24 h, read-out: MIC versus organism Ps.a) [µg/mL] | MIC (Escherichia coli; Escherichia coli, 24 h, read-out: MIC versus organism E.c) [µg/mL] | MIC versus organism S.a (Staphylococcus aureus) [ppm] | MIC versus organism Ps.a (Pseudomonas aeruginosa) [ppm] | MIC versus organism E.c (Escherichia coli) [ppm]
1 | CCCCCCCCCC[N+](C)(C)CCCCCCCCCC.[Cl-] [Bardac 22.70, Didecyldimethyl ammonium chloride] | 1 | 8 | 4 |  |  | 
2 | CCCCCCCCCCCCN(CCCN)CCCN [Lonzabac 12.30, N-3-aminopropyl-N-dodecylpropane-1-3-diamine] |  |  |  | 8 | 32 | 16
3 | [Na+].[O-][n+]1ccccc1[S-] [Sodium Omadine, Na pyrithione] |  |  |  | 1 | 16 | 500
4 | Alkyldimethylbenzylammonium chloride [Barquat 4214] |  |  |  | 2 | 32 | 8
5 | Benzyl C12-16 alkyl dimethyl chlorides [Barquat DM-80] |  |  |  | 2 | 32 | 12
6 | Didecyl dimethyl ammonium carbonate/bicarbonate [Carboquat HE] |  |  |  | 1 | 8 | 4
7 | N,N-Didecyl-N-methyl-poly(oxyethyl)ammonium propionate [Bardap 26] |  |  |  | 1 | 16 | 4

From US20200305437A1, “SYNERGISTIC ANTIMICROBIAL COMBINATIONS CONTAINING QUATERNARY AMMONIUM BIOCIDE” (LONZA, LLC, priority 2016, published 2020)
